Experimental data reported in ChEMBL document CHEMBL3351907, “Design, synthesis and biological evaluation of benzyl 2-(1H-imidazole-1-yl) pyrimidine analogues as selective and potent Raf inhibitors” (Bioorg Med Chem Lett, 2014).
Calls of active or inactive are those of the source. No cut-off for these calls is given here.

Key:
[1] = (§1) Cytotoxicity against human A375P cells assessed as cell viability after 24 hrs by MTT assay; type: functional
U-937 = assay: (§2) Cytotoxicity against human U937 cells assessed as cell viability after 24 hrs by MTT assay; type: functional
[2] = as §2; type: functional; conditions: U-937, 24 h
A375P = assay: as §1; type: functional
[3] = biological target: Serine/threonine-protein kinase B-raf (Homo sapiens, UniProt P15056, V600E); assay: Inhibition of BRAF V599E mutant (unknown origin)
Chain of Serine/threonine-protein kinase B-raf (Homo sapiens, UniProt P15056, V600E) (P15056 2-766 V600E limits assumed): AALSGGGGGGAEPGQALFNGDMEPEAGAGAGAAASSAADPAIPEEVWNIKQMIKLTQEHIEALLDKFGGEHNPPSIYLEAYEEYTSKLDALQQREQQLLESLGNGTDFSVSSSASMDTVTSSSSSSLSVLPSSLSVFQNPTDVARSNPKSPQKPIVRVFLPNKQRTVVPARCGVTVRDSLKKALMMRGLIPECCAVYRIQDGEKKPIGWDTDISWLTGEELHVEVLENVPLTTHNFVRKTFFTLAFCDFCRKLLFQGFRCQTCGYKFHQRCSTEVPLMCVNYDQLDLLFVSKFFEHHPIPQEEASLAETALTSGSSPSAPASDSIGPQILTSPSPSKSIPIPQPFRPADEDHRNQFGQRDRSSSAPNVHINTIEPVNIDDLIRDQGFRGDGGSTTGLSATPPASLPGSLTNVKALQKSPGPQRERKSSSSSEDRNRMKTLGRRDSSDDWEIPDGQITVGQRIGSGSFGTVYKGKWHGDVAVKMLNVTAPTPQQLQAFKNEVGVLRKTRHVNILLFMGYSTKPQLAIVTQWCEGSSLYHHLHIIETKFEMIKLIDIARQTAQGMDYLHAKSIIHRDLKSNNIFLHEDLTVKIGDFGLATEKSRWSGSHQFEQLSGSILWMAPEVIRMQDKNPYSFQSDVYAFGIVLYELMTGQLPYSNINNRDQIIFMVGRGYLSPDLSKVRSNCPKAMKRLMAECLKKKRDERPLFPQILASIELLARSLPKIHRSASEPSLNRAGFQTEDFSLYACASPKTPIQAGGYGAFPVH

[4] = biological target: Serine/threonine-protein kinase mTOR (Homo sapiens) (UniProt P42345); assay: Inhibition of mTOR/FRAP1 (unknown origin) at 10 uM
[5] = biological target: Hepatocyte growth factor receptor (Homo sapiens) (UniProt P08581); assay: Inhibition of c-MET (unknown origin) at 10 uM
[6] = biological target: Aurora kinase A (Homo sapiens) (UniProt O14965); assay: Inhibition of Aurora A (unknown origin) at 10 uM
Chain of Aurora kinase A (Homo sapiens) (O14965 whole entry): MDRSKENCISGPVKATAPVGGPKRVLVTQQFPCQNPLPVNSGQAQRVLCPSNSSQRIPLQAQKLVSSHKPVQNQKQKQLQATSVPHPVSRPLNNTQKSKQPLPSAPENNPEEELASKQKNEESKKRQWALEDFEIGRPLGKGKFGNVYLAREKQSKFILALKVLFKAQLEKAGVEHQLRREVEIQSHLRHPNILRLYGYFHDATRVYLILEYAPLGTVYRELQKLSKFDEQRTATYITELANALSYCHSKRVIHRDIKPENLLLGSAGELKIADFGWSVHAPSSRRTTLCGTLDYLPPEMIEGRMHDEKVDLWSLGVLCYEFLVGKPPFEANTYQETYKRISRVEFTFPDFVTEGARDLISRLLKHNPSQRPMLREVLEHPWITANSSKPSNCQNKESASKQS

[7] = biological target: T1, Serine/threonine-protein kinase B-raf (Homo sapiens, UniProt P15056); conditions: 10 uM
T1 sequence (P15056 whole entry): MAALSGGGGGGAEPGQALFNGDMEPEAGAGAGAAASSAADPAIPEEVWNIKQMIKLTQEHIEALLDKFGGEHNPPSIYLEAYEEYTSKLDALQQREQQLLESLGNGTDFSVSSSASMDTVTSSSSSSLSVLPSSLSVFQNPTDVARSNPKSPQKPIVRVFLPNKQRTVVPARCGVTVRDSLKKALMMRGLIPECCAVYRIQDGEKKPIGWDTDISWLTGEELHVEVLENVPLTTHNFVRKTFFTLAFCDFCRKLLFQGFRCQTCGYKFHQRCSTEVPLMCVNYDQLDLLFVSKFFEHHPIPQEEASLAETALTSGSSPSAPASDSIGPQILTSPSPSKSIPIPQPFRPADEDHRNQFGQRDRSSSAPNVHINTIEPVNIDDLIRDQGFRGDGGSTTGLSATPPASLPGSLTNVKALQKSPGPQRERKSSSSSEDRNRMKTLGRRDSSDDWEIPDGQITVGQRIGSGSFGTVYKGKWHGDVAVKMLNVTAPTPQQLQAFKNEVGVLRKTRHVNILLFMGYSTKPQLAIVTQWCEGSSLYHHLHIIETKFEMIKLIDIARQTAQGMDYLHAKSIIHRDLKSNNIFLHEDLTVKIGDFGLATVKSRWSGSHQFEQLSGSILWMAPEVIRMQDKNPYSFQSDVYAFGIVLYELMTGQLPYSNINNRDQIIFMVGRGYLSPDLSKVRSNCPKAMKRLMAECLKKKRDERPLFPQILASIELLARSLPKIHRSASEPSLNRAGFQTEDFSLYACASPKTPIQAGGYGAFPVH
Description: Inhibition of BRAF (unknown origin) at 10 uM

[8] = biological target: Tyrosine-protein kinase SYK (Homo sapiens) (UniProt P43405); assay: Inhibition of SYK (unknown origin) at 10 uM
[9] = biological target: Tyrosine-protein kinase JAK3 (Homo sapiens) (UniProt P52333); assay: Inhibition of JAK3 (unknown origin) at 10 uM
[10] = biological target: Dual specificity mitogen-activated protein kinase kinase 1 (Homo sapiens) (UniProt Q02750); assay: Inhibition of MEK1 (unknown origin) at 10 uM
[11] = biological target: Mitogen-activated protein kinase 10 (Homo sapiens) (UniProt P53779); assay: Inhibition of JNK3 (unknown origin) at 10 uM
[12] = biological target: Cyclin-dependent kinase 1/cyclin B1 (Homo sapiens) (UniProt P06493+P14635); assay: Inhibition of CDK1/cyclin B (unknown origin) at 10 uM; type: protein-complex assay
[13] = biological target: Fibroblast growth factor receptor 3 (Homo sapiens) (UniProt P22607); assay: Inhibition of FGFR3 (unknown origin) at 10 uM
[14] = biological target: Focal adhesion kinase 1 (Homo sapiens) (UniProt Q05397); assay: Inhibition of FAK/PTK2 (unknown origin) at 10 uM
Chain of Focal adhesion kinase 1 (Homo sapiens) (Q05397 whole entry, looked up): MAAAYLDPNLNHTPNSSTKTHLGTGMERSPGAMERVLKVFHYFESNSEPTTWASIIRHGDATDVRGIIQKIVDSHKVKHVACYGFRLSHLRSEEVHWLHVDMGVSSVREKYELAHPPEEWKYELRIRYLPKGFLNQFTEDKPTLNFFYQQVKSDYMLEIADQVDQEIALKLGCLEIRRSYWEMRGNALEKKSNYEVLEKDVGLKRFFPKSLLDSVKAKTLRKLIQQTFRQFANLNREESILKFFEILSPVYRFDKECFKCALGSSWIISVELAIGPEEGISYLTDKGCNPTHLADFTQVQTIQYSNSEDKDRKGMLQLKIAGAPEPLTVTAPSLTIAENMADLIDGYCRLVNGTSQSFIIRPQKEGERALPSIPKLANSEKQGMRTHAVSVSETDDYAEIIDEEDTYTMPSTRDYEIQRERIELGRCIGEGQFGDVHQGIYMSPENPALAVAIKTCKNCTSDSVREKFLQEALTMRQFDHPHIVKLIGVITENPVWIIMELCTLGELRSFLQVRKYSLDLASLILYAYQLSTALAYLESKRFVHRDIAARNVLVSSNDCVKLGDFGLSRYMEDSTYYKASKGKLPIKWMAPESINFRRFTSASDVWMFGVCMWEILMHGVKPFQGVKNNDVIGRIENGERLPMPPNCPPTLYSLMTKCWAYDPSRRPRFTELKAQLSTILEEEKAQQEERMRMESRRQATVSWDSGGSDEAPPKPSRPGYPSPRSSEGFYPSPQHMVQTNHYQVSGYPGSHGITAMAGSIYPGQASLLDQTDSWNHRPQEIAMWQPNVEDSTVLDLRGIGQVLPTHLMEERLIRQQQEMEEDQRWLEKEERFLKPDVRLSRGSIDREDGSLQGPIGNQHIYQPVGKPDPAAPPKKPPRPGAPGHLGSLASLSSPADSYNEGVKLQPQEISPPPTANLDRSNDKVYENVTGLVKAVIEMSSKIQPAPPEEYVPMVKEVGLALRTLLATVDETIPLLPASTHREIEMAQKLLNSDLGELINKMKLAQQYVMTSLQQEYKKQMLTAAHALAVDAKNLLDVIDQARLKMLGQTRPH

[15] = biological target: Glycogen synthase kinase-3 beta (Homo sapiens) (UniProt P49841); assay: Inhibition of GSK3b (unknown origin) at 10 uM
[16] = biological target: Proto-oncogene tyrosine-protein kinase Src (Homo sapiens) (UniProt P12931); assay: Inhibition of c-Src (unknown origin) at 10 uM
[17] = biological target: Tyrosine-protein kinase ABL1 (Homo sapiens) (UniProt P00519); assay: Inhibition of ABL1 (unknown origin) at 10 uM
[18] = biological target: Proto-oncogene tyrosine-protein kinase ROS (Homo sapiens) (UniProt P08922); assay: Inhibition of ROS/ROS1 (unknown origin) at 10 uM
[19] = biological target: Tyrosine-protein kinase Lyn (Homo sapiens) (UniProt P07948); assay: Inhibition of LYN (unknown origin) at 10 uM
Chain of Tyrosine-protein kinase Lyn (Homo sapiens) (P07948 2-512 limits assumed): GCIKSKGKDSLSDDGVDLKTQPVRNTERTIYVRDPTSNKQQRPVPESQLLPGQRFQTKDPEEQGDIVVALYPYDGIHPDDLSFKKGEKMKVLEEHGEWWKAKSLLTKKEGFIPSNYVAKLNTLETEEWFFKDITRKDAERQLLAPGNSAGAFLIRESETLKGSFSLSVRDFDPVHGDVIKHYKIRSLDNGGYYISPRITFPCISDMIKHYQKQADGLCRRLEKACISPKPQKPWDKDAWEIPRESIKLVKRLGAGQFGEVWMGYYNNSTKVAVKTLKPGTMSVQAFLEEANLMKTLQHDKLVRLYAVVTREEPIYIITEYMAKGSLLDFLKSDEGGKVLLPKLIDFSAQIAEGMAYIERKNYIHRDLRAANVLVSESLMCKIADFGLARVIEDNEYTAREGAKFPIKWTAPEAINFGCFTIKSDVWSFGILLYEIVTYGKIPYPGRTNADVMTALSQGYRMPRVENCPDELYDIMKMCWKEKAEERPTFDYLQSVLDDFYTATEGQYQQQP

[20] = biological target: T2, Mitogen-activated protein kinase 14 (Homo sapiens, UniProt Q16539); assay: Inhibition of P38a/MAPK14 (unknown origin)
T2 sequence (Q16539 whole entry): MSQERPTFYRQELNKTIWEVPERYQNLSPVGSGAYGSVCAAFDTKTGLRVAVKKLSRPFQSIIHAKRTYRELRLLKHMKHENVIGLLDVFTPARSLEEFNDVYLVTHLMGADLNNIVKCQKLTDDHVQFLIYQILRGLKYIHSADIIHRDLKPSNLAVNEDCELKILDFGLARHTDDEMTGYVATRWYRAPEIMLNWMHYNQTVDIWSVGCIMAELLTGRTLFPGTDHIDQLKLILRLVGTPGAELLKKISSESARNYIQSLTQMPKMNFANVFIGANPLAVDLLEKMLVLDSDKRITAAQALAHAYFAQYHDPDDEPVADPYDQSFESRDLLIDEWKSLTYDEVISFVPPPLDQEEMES

[21] = test system: Serine/threonine-protein kinase B-raf (Homo sapiens), P15056 [V600E]; conditions: 10 uM
Description: Inhibition of BRAF V599E mutant (unknown origin) at 10 uM

[22] = biological target: Serine/threonine-protein kinase PLK1 (Homo sapiens) (UniProt P53350); assay: Inhibition of PLK1 (unknown origin) at 10 uM
Homo sapiens = species on record: Homo sapiens; assay: Inhibition of PKA (unknown origin) at 10 uM
[23] = biological target: T3, RAF proto-oncogene serine/threonine-protein kinase (Homo sapiens, UniProt P04049); assay: Inhibition of RAF1 (unknown origin) at 10 uM
T3 sequence (P04049 whole entry): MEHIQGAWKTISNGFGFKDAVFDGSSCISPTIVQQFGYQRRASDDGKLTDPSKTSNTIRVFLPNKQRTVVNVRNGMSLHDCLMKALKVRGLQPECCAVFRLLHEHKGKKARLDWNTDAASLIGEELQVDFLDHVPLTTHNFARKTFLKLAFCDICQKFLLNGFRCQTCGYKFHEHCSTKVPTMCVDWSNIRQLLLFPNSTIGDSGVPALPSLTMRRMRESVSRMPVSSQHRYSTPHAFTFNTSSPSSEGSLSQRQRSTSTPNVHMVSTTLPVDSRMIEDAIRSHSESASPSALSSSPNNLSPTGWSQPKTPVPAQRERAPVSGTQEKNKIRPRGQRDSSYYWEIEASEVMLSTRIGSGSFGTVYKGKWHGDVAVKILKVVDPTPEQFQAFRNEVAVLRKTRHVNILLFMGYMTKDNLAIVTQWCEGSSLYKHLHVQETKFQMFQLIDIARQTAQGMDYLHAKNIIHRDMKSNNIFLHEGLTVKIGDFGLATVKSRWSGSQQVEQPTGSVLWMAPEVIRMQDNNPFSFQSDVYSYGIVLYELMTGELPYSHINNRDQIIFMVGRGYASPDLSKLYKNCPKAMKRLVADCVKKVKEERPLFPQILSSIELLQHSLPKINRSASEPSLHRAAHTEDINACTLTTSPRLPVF

[24] = biological target: Insulin-like growth factor 1 receptor (Homo sapiens) (UniProt P08069); assay: Inhibition of IGF1R (unknown origin) at 10 uM
[25] = biological target: Tyrosine-protein kinase BTK (Homo sapiens) (UniProt Q06187); assay: Inhibition of BTK (unknown origin) at 10 uM
[26] = biological target: Receptor-type tyrosine-protein kinase FLT3 (Homo sapiens) (UniProt P36888); assay: Inhibition of FLT3 (unknown origin) at 10 uM
[27] = biological target: T2, Mitogen-activated protein kinase 14; assay: Inhibition of P38a/MAPK14 (unknown origin) at 10 uM
[28] = biological target: T1, Serine/threonine-protein kinase B-raf; assay: Inhibition of BRAF (unknown origin)
[29] = biological target: T3, RAF proto-oncogene serine/threonine-protein kinase; assay: Inhibition of cRAF1 (unknown origin) at 10 uM
[30] = biological target: ALK tyrosine kinase receptor (Homo sapiens) (UniProt Q9UM73); assay: Inhibition of ALK (unknown origin) at 10 uM
[31] = biological target: Macrophage colony-stimulating factor 1 receptor (Homo sapiens) (UniProt P07333); assay: Inhibition of FMS (unknown origin) at 10 uM
[32] = biological target: Mitogen-activated protein kinase 3 (Homo sapiens) (UniProt P27361); assay: Inhibition of ERK1 (unknown origin) at 10 uM
[33] = biological target: Mast/stem cell growth factor receptor Kit (Homo sapiens) (UniProt P10721); assay: Inhibition of c-Kit (unknown origin) at 10 uM
[34] = biological target: Macrophage-stimulating protein receptor (Homo sapiens) (UniProt Q04912); assay: Inhibition of RON/MST1R (unknown origin) at 10 uM
[35] = biological target: Epidermal growth factor receptor (Homo sapiens) (UniProt P00533); assay: Inhibition of EGFR (unknown origin) at 10 uM
[36] = biological target: RAC-alpha serine/threonine-protein kinase (Homo sapiens) (UniProt P31749); assay: Inhibition of AKT1 (unknown origin) at 10 uM
[37] = biological target: Tyrosine-protein kinase Lck (Homo sapiens) (UniProt P06239); assay: Inhibition of LCK (unknown origin) at 10 uM
Chain of Tyrosine-protein kinase Lck (Homo sapiens) (P06239 2-509 limits assumed): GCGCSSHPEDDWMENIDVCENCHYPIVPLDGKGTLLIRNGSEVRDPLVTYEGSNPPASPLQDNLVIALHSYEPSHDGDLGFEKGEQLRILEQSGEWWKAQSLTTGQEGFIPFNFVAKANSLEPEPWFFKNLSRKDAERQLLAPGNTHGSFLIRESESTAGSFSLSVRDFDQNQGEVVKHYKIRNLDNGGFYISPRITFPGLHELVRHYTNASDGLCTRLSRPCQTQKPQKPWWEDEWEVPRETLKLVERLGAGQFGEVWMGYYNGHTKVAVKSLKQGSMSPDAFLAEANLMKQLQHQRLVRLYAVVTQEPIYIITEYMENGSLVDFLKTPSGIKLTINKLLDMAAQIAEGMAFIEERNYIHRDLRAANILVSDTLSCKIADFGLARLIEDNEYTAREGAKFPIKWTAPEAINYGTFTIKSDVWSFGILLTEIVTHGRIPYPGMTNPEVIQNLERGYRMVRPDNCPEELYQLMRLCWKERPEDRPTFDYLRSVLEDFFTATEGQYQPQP

For `C[C@H](O)CNc1nccc(-n2ccnc2C(=O)c2cccc(NC(=O)c3cc(N4CCN(C)CC4)cc(C(F)(F)F)c3)c2)n1`, the GI50 [1] was 27.8 µM and the GI50 (U-937) was “inactive”.

With `C[C@H](O)CNc1nccc(-n2ccnc2C(=O)c2cccc(NC(=O)c3cccc(C(F)(F)F)c3)c2)n1` the GI50 [1] was > 30 µM and the GI50 [2] was 3.78 µM.

In the case of `C[C@H](O)CNc1nccc(-n2ccnc2Cc2cccc(NC(=O)c3ccc(N4CCOCC4)c(C(F)(F)F)c3)c2)n1`, the GI50 (A375P) is reported as “inactive” and the GI50 (U-937) is reported as “inactive”.

`C[C@H](O)CNc1nccc(-n2ccnc2Cc2cccc(NC(=O)Nc3ccc(Cl)c(C(F)(F)F)c3)c2)n1` gave an IC50 [3] of 0.0383 µM, an inhibition [4] of 0% and an inhibition [5] of 17.6%. For the same compound, the inhibition [6] was 17.6%, the inhibition [7] was 99.9% and the inhibition [8] was 0%. It also gave an inhibition [9] of 0%, an inhibition [10] of 0% and an inhibition [11] of 0%. It also gave an inhibition [12] of 34.8%, an inhibition [13] of 3.5% and an inhibition [14] of 1.2%. It also gave an inhibition [15] of 34.5%, an inhibition [16] of 2.1% and an inhibition [17] of 6.9%. For the same compound, the inhibition [18] was 0.73%, the inhibition [19] was 8.1% and the IC50 [20] was 0.571 µM. The inhibition [21] was 96.1%, the inhibition [22] was 9.9% and the GI50 [1] was 1.82 µM. It also gave an inhibition (Homo sapiens) of 0%, an inhibition [23] of 98.7% and an inhibition [24] of 0%. It also gave an inhibition [25] of 0%, an inhibition [26] of 68.4% and an inhibition [27] of 94.3%. The IC50 [28] was 0.186 µM, the IC50 [29] was 0.00879 µM and the inhibition [30] was 4.9%. It also gave an inhibition [31] of 33.6%, an inhibition [32] of 0% and an inhibition [33] of 63.8%. It also gave a GI50 [2] of 2.73 µM, an inhibition [34] of 0.42% and an inhibition [35] of 0%. It also gave an inhibition [36] of 12.9% and an inhibition [37] of 5.8%.

For `C[C@H](O)CNc1nccc(-n2ccnc2Cc2cccc(NC(=O)Nc3cccc(Cl)c3)c2)n1`, the GI50 [1] was 26.2 µM and the GI50 [2] was 15.3 µM.

Work on `C[C@H](O)CNc1nccc(-n2ccnc2Cc2cccc(NC(=O)c3ccc(-c4ccccc4)cc3)c2)n1` yielded a GI50 [1] of 0.6 µM and a GI50 [2] of 1.68 µM.

With `C[C@H](O)CNc1nccc(-n2ccnc2C(=O)c2cccc(NC(=O)Nc3ccc(Cl)cc3)c2)n1` the GI50 [1] was > 30 µM and the GI50 [2] was > 30 µM.

In the case of `C[C@H](O)CNc1nccc(-n2ccnc2C(=O)c2ccc(NC(=O)c3ccc(C(F)(F)F)c(N4CCOCC4)c3)cc2)n1`, the GI50 [1] is reported as 7.07 µM and the GI50 (U-937) is reported as “inactive”.

In the case of `COc1ccc(-c2ccc(C(=O)Nc3cccc(C(=O)c4nccn4-c4ccnc(NC[C@H](C)O)n4)c3)o2)cc1`, the GI50 [1] is reported as 9.39 µM and the GI50 [2] is reported as 2.55 µM.

In the case of `C[C@H](O)CNc1nccc(-n2ccnc2Cc2cccc(NC(=O)c3ccncc3)c2)n1`, the GI50 [1] is reported as 8.92 µM and the GI50 (U-937) is reported as “inactive”.

For `Cc1cc(C)cc(C(=O)Nc2cccc(Cc3nccn3-c3ccnc(NC[C@H](C)O)n3)c2)c1`, the GI50 (A375P) was “inactive” and the GI50 [2] was 16.8 µM.

`C[C@H](O)CNc1nccc(-n2ccnc2Cc2cccc(NC(=O)Nc3ccc(Cl)c(Cl)c3)c2)n1` showed a GI50 [1] of 19.2 µM and a GI50 [2] of 1.73 µM.

With `C[C@H](O)CNc1nccc(-n2ccnc2C(=O)c2ccc(NC(=O)c3cc(N4CCN(C)CC4)cc(C(F)(F)F)c3)cc2)n1` the GI50 [1] was 5.92 µM and the GI50 (U-937) was “inactive”.

For `C[C@H](O)CNc1nccc(-n2ccnc2Cc2cccc(NC(=O)c3ccc(Cl)c(C(F)(F)F)c3)c2)n1`, the GI50 [1] was 3.3 µM and the GI50 [2] was 6.83 µM.

For `CC(=O)N1CCC(C(=O)Nc2cccc(Cc3nccn3-c3ccnc(NC[C@H](C)O)n3)c2)CC1`, the GI50 (A375P) was “inactive” and the GI50 (U-937) was “inactive”.

With `C[C@H](O)CNc1nccc(-n2ccnc2C(=O)c2cccc(NC(=O)c3ccc(Cl)cc3)c2)n1` the GI50 [1] was > 30 µM and the GI50 [2] was > 30 µM.

`CNC(=O)c1cc(Oc2ccc(NC(=O)Nc3ccc(Cl)c(C(F)(F)F)c3)cc2)ccn1` [SORAFENIB] showed a GI50 [1] of 3.4 µM and a GI50 [2] of 2.74 µM.

In the case of `C[C@H](O)CNc1nccc(-n2ccnc2Cc2cccc(NC(=O)Cc3c[nH]c4ccccc34)c2)n1`, the GI50 [1] is reported as > 30 µM and the GI50 [2] is reported as > 30 µM.

For `C[C@H](O)CNc1nccc(-n2ccnc2C(=O)c2cccc(NC(=O)c3cc(N4CCOCC4)cc(C(F)(F)F)c3)c2)n1`, the GI50 (A375P) was “inactive” and the GI50 [2] was 4.9 µM.

`C[C@H](O)CNc1nccc(-n2ccnc2Cc2cccc(NC(=O)Cc3ccc(-c4ccccc4)cc3)c2)n1` gave a GI50 [1] of 11.2 µM and a GI50 [2] of 10 µM.
